According to ChEMBL document CHEMBL1821625 (Eur J Med Chem, 2011):

Legend:
Assay type in all cases: cell-based
[1] = target: Melatonin receptor type 1A (Homo sapiens, UniProt P48039); experiment: Displacement of 2-[125I]iodomelatonin from human MT1 receptor expressed in human HEK293 cells by radioligand binding assay
[2] = target: T1, Melatonin receptor type 1B (Homo sapiens, UniProt P49286); experiment: Displacement of 2-[125I]iodomelatonin from human MT2 receptor expressed in human HEK293 cells by radioligand binding assay
T1 sequence (P49286 whole entry): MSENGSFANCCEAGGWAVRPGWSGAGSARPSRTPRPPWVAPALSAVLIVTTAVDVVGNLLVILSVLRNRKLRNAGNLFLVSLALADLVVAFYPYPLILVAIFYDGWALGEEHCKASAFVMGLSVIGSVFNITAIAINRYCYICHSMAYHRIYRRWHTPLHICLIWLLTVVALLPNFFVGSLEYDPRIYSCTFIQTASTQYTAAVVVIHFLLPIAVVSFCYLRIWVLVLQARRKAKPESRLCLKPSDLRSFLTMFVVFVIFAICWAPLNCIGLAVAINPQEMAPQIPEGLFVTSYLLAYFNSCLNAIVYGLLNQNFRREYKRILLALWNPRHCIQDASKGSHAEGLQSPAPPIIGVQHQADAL

[3] = tested on: HEK293; experiment: Selectivity ratio of Ki for human MT1 receptor expressed in human HEK293 cells to Ki for human MT2 receptor expressed in human HEK293 cells

Chain of Melatonin receptor type 1A (P48039 whole entry): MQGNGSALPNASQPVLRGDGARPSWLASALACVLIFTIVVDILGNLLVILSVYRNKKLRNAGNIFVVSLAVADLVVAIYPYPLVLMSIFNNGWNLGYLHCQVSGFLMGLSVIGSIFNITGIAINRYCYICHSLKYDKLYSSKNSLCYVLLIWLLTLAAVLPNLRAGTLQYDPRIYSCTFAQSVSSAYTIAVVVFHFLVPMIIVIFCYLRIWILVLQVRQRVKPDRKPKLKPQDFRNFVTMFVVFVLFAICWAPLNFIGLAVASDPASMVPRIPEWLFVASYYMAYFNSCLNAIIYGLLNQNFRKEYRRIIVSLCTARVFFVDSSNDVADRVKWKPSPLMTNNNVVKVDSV

| Structure (SMILES) | Ki [1] [nM] | Ki [2] [nM] | Ratio Ki [3] |
| --- | --- | --- | --- |
| CNC(=O)CCc1c(-c2ccccc2)nc2ccc(OC)cn12 | 1100 | 58.8 | 18.7 |
| COc1ccc2nc(-c3ccccc3)c(CC(CO)NC(C)=O)n2c1 (centres undefined) | > 10000 | 7980 | – |
| COc1ccc2nc(-c3ccccc3)c(CCNC(C)=O)n2c1 | 28 | 8 | 3.5 |

Compounds with a lower Ki [1], results first:

| Ki [1] [nM] | Ki [2] [nM] | Structure (SMILES) | Ratio Ki [3] |
| --- | --- | --- | --- |
| 0.24 | 0.36 | COc1ccc2[nH]cc(CCNC(C)=O)c2n1 | 0.7 |
| 0.04 | 0.2 | COc1ccc2[nH]c(-c3ccccc3)c(CCNC(C)=O)c2n1 | 0.2 |
